Read-outs that look alike come from different tables or passages of the source.
Target: T1, mouse TMEM16A mutant I640A (Mus musculus, UniProt Q8BHY3, I640A)
T1 construct: expressed in transfected cells; host or cells: HEK293T
T1 sequence (Q8BHY3 1-960 I640A): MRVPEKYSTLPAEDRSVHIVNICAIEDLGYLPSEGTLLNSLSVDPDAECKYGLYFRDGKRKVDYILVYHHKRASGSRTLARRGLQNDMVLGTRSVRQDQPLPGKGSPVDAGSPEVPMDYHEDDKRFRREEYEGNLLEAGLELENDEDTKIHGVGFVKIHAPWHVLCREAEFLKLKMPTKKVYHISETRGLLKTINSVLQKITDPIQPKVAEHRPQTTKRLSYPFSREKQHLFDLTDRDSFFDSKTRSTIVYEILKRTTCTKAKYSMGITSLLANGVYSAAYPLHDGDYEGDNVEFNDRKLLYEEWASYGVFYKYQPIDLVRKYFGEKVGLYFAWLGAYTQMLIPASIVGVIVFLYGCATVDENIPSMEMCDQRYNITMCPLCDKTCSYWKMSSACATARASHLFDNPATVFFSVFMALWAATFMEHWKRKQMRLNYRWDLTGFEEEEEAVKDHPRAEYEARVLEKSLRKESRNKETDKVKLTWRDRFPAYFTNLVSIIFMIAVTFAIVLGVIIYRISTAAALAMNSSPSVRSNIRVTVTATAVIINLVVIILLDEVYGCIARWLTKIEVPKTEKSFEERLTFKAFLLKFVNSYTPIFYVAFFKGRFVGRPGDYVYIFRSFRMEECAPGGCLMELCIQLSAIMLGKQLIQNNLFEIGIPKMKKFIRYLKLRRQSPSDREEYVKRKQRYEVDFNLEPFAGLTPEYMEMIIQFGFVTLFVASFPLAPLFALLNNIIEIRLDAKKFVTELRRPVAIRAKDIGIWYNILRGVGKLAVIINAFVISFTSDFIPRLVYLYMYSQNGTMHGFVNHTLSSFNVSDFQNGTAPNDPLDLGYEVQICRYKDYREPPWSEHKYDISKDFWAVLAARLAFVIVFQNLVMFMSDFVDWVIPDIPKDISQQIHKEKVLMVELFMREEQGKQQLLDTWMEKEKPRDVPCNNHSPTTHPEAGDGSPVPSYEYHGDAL
Test: Inside-out patch recording of 1PBC block, mutant I640A
Type: cell-based
Details: for IC50: 15 µM Ca2+
Description: HEK293T cells (ATCC CRL-1573) were maintained in Dulbecco’s modified Eagle’s medium (DMEM; Sigma-Aldrich) supplemented with 10 U ml^−1 penicillin, 0.1 mg ml^−1 streptomycin (Sigma-Aldrich), 2 mM L-glutamine (Sigma-Aldrich), and 10% FBS (Sigma-Aldrich) in a humidified atmosphere containing 5% CO2 at 37 °C. HEK293S GnTI^− cells (ATCC CRL-3022) were maintained in HyClone HyCell TransFx-H medium (GE Healthcare) supplemented with 10 U ml^−1 penicillin, 0.1 mg ml^−1 streptomycin, 4 mM L-glutamine, 0.15% poloxamer 188 (Sigma-Aldrich), and 1% FBS in an atmosphere containing 5% CO2 at 185 rpm at 37 °C. The ac splice variant of mouse TMEM16A (UniProt ID: Q8BHY3), mouse TMEM16B (UniProt ID: Q8CFW1), or mouse TMEM16F (UniProt ID: Q6P9J9) bearing a 3C cleavage site, a Venus YFP, a Myc tag, and a Streptavidin-binding peptide (SBP) downstream of the open reading frame in a modified pcDNA3.1 vector (Invitrogen) were used as described previously[21],[31]. Mutations were introduced using a modified QuikChange method[58] and were verified by sequencing.
HEK293T cells were transfected with 3–4 μg DNA per 6 cm Petri dish using the calcium phosphate co-precipitation method and were used within 24–96 h after transfection. Recordings were performed on inside-out patches excised from HEK293T cells expressing the construct of interest. Patch pipettes were pulled from borosilicate glass capillaries (O.D. 1.5 mm, I.D. 0.86 mm, Sutter Instrument) and were fire-polished with a microforge (Narishige) before use. Pipette resistance was typically 3–8 MΩ when filled with the recording solutions detailed below. Seal resistance was typically 4 GΩ or higher. Voltage-clamp recordings were made using Axopatch 200B, Digidata 1550, and Clampex 10.7 (Molecular Devices). Analog signals were filtered with the in-built 4-pole Bessel filter at 10 kHz and were digitized at 20 kHz. Solution exchange was achieved using a gravity-fed system through a theta glass pipette mounted on an ultra-fast piezo-driven stepper (Siskiyou). […] All recordings were performed at 20 °C.
A symmetrical ionic condition was used throughout. Stock solution with Ca^2+-EGTA contained 150 mM NaCl, 5.99 mM Ca(OH)2, 5 mM EGTA, and 10 mM HEPES at pH 7.40. Stock solution with EGTA contained 150 mM NaCl, 5 mM EGTA, and 10 mM HEPES at pH 7.40. Free Ca^2+ concentrations were adjusted by mixing the stock solutions at the required ratios calculated using the WEBMAXC program (http://web.stanford.edu/~cpatton/webmaxcS.htm). Patch pipettes were filled with the stock solution with Ca^2+-EGTA, which has a free Ca^2+ concentration of 1 mM. 1PBC (ChemBridge) stock was reconstituted in anhydrous DMSO (Sigma-Aldrich) at 100 mM and stored at −20 °C. Working solutions with 1PBC were prepared by serial dilution. Unless otherwise stated, experiments were performed at a saturating Ca^2+ concentration as shown in Supplementary Table 1 and the primary data were corrected for current rundown as described previously[21],[25].
Concentration-response relations, obtained from the ratio of the I-V plots before and after the application of the blocker, were fitted to the Hill equation,1 I/Imax=1/1+IC50/[blocker]^h where I/Imax is the normalized current responses, IC50 defines the concentration at which inhibition is at its half-maximum, and h is the Hill coefficient.

IC50 (0 mV): 31.5 µM | remaining activity at 3 µM (0 mV, 1PBC conc 3, read-out: relative current in 1PBC (avr)): 90.3% | remaining activity at 10 µM (0 mV, 1PBC conc 10, read-out: relative current in 1PBC (avr)): 75.5% | remaining activity at 30 µM (0 mV, 1PBC conc 30, read-out: relative current in 1PBC (avr)): 52.3% | remaining activity at 100 µM (0 mV, 1PBC conc 100, read-out: relative current in 1PBC (avr)): 23.3% | remaining activity at 3 µM (3 µM 1PBC, +80 mV, saturating Ca2+ (15 µM), read-out: I/Imax): 89.4% | remaining activity at 3 µM (3 µM 1PBC, -80 mV, saturating Ca2+ (15 µM), read-out: I/Imax): 92.4% | remaining activity at 10 µM (10 µM 1PBC, +80 mV, saturating Ca2+ (15 µM), read-out: I/Imax): 67.9% | remaining activity at 10 µM (10 µM 1PBC, -80 mV, saturating Ca2+ (15 µM), read-out: I/Imax): 84.6% | remaining activity at 30 µM (30 µM 1PBC, +80 mV, saturating Ca2+ (15 µM), read-out: I/Imax): 43% | remaining activity at 30 µM (30 µM 1PBC, -80 mV, saturating Ca2+ (15 µM), read-out: I/Imax): 64.1% | remaining activity at 100 µM (100 µM 1PBC, +80 mV, saturating Ca2+ (15 µM), read-out: I/Imax): 17.7% | remaining activity at 100 µM (100 µM 1PBC, -80 mV, saturating Ca2+ (15 µM), read-out: I/Imax): 34.6% | normalised current (avr) (1PBC 3, V 0 mV): -0.001271 | normalised current (avr) (1PBC 3, V 40 mV): 0.2411 | normalised current (avr) (1PBC 3, V 60 mV): 0.367 | normalised current (avr) (1PBC 3, V 80 mV): 0.5025 | normalised current (avr) (1PBC 3, V 100 mV): 0.651 | normalised current (avr) (1PBC 3, V 120 mV): 0.7973 | normalised current (avr) (1PBC 3, V 140 mV): 0.965 | normalised current (avr) (1PBC 3, V -20 mV): -0.1226 | normalised current (avr) (1PBC 3, V -40 mV): -0.2495 | normalised current (avr) (1PBC 3, V -60 mV): -0.3836 | normalised current (avr) (1PBC 3, V -80 mV): -0.5286 | normalised current (avr) (1PBC 3, V -100 mV): -0.6862 | normalised current (avr) (1PBC 3, V -120 mV): -0.8514 | normalised current (avr) (1PBC 3, V -140 mV): -1.031 | normalised current (avr) (1PBC 10, V 0 mV): -0.001063 | normalised current (avr) (1PBC 10, V 40 mV): 0.1907 | normalised current (avr) (1PBC 10, V 60 mV): 0.2862 | normalised current (avr) (1PBC 10, V 80 mV): 0.3819 | normalised current (avr) (1PBC 10, V 100 mV): 0.495 | normalised current (avr) (1PBC 10, V 120 mV): 0.6083 | normalised current (avr) (1PBC 10, V 140 mV): 0.7528 | normalised current (avr) (1PBC 10, V -20 mV): -0.1054 | normalised current (avr) (1PBC 10, V -40 mV): -0.2204 | normalised current (avr) (1PBC 10, V -60 mV): -0.3486 | normalised current (avr) (1PBC 10, V -80 mV): -0.4836 | normalised current (avr) (1PBC 10, V -100 mV): -0.6367 | normalised current (avr) (1PBC 10, V -120 mV): -0.7969 | normalised current (avr) (1PBC 10, V -140 mV): -0.9705 | normalised current (avr) (1PBC 30, V 0 mV): -0.0007361 | normalised current (avr) (1PBC 30, V 40 mV): 0.1262 | normalised current (avr) (1PBC 30, V 60 mV): 0.1828 | normalised current (avr) (1PBC 30, V 80 mV): 0.2416 | normalised current (avr) (1PBC 30, V 100 mV): 0.3073 | normalised current (avr) (1PBC 30, V 120 mV): 0.3826 | normalised current (avr) (1PBC 30, V 140 mV): 0.476 | normalised current (avr) (1PBC 30, V -20 mV): -0.07452 | normalised current (avr) (1PBC 30, V -40 mV): -0.1601 | normalised current (avr) (1PBC 30, V -60 mV): -0.2555 | normalised current (avr) (1PBC 30, V -80 mV): -0.3668 | normalised current (avr) (1PBC 30, V -100 mV): -0.4877 | normalised current (avr) (1PBC 30, V -120 mV): -0.6228 | normalised current (avr) (1PBC 30, V -140 mV): -0.7629 | normalised current (avr) (1PBC 100, V 0 mV): -0.0003287 | normalised current (avr) (1PBC 100, V 60 mV): 0.07288 | normalised current (avr) (1PBC 100, V 80 mV): 0.09923 | normalised current (avr) (1PBC 100, V 100 mV): 0.1285 | normalised current (avr) (1PBC 100, V 120 mV): 0.1506 | normalised current (avr) (1PBC 100, V 140 mV): 0.1846 | normalised current (avr) (1PBC 100, V -20 mV): -0.0346 | normalised current (avr) (1PBC 100, V -40 mV): -0.07836 | normalised current (avr) (1PBC 100, V -60 mV): -0.1311 | normalised current (avr) (1PBC 100, V -80 mV): -0.1979 | normalised current (avr) (1PBC 100, V -100 mV): -0.2777 | normalised current (avr) (1PBC 100, V -120 mV): -0.3667 | normalised current (avr) (1PBC 100, V -140 mV): -0.4836 | IC50 (20 mV): 27.5 µM | remaining activity at 3 µM (20 mV, 1PBC conc 3, read-out: relative current in 1PBC (avr)): 89.4% | remaining activity at 10 µM (20 mV, 1PBC conc 10, read-out: relative current in 1PBC (avr)): 72.5% | remaining activity at 30 µM (20 mV, 1PBC conc 30, read-out: relative current in 1PBC (avr)): 49.1% | remaining activity at 100 µM (20 mV, 1PBC conc 100, read-out: relative current in 1PBC (avr)): 20.9% | IC50 (40 mV): 24.7 µM | remaining activity at 3 µM (40 mV, 1PBC conc 3, read-out: relative current in 1PBC (avr)): 89% | remaining activity at 10 µM (40 mV, 1PBC conc 10, read-out: relative current in 1PBC (avr)): 70.4% | remaining activity at 30 µM (40 mV, 1PBC conc 30, read-out: relative current in 1PBC (avr)): 46.6%
Structure (SMILES): N#Cc1c(C(F)(F)F)cc(O)n2c1nc1ccccc12 [1PBC]
